Data from US5792457A, “Antibody recognizing endothelial cell ligand for leukocyte CR3” (priority 1995, dated 1998).
Entries after “also recorded” stand apart in the source; their conditions may differ.

Tests used:
[1] = test system: leukocyte migration into the CSF, pneumococcal meningitis; experiment: Rabbit model for meningitis: leukocyte migration into CSF; assay type: in vivo, New Zealand white rabbits; conditions: for leukocyte migration into the CSF (in words): 0.1 μM (10^-1 μM) i.v.; for mean leukocyte density, cells/μl CSF: 1 ml of 1 μM peptide i.v.; for mean leukocyte density, cells/μl CSF / mean leukocyte concentration/μl CSF: 7 hours after challenge; for leukocyte migration into CSF (in words): 10^-3 μM; for reduction of CSF leukocytosis: intravenous injection
Description: FIG. 20A and B, is a graphical representation of the anti-inflammatory activity of FHA, and FHA- and factor X-derived peptides in experimental bacterial meningitis. FIG. 20 A: FHA .largecircle.; Control .quadrature.. FIG. 20B: FHA peptide Ia .largecircle.; FHA peptide II .box-solid.; Factor X peptide II .tangle-solidup.; scrambled FHA peptide II .circle-solid..
FIG. 21 is a graphical representation of the effect of concentration of peptide on inhibition of leukocyte migration into the CSF. FHA peptide Ia .largecircle., FHA peptide II .box-solid.; Factor X peptide II .tangle-solidup.(n≥4 per group). Two animals received intravenous injections of 10^-1 μM, 2×10^-2 μM or 2×10^-3 μM FHA (.circle-solid.). Values are means±standarddeviations of leukocyte densities at 7 hours after bacterial challenge. The horizontal lines indicate the mean and standard deviation of CSF leukocyte density in 10 control animals which received phosphate buffered saline.
FIG. 22 is a scattergram representation of the effect of variation of the FHA peptide II structure on efficacy of inhibition,of meningeal inflammation. Values are leukocyte densities at 7 hours for individual rabbits. The horizontal lines indicate the mean and standard deviation of CSF leukocyte density in 10 control animals which received phosphate buffered saline.
FIG. 23 is a scattergram representation of the ability of acetyl/amide FHA peptide II to inhibit accumulation of leukocytes in the CSF. Two groups of 10 animals were challenged with pneumococci. One hour later, the animals received an intravenous injection of 10 nmoles of the acetyl/amide peptide (8.2 μg) or phosphate buffered saline. Leukocyte density in CSF was determined 6 hours after pneumococcal challenge.
FIG. 28 is a graphical representation of the effect of FHA peptides on pneumococci induced leukocyte migration into the CSF during pneumococcal meningitis. Data represent mean±standard deviation of leukocyte concentration/μl CSF of at least 4 animals per group. Time is hours after pneumococcal challenge. FHA peptide Ca (.quadrature.); FHA peptide Cb (.largecircle.); FHA peptide Cd (.tangle-solidup.); Control (.diamond-solid.);
FIG. 29 is a graphical representation of a comparison of anti-inflammatory activity of FHA and FHA peptides in experimental meningitis. FHA peptide Ca (.quadrature.); FHA peptide Cb (.largecircle.), ≥ four animals/group; FHA (.tangle-solidup.), two animals/group. Values are means ±standard deviations of leukocyte concentrations/μl CSF at 7 hours after bacterial challenge. The horizontal lines indicate the mean±standard deviation of leukocyte concentrations in 10 control animals which received phosphate buffered saline.
The rabbit model was performed according to an established protocol. Specific pathogen free, New Zealand white rabbits (2 kg; Hare Marland, Nutley, N.J.) were anesthetized with valium (2.5 mg/kg, subcutaneously, Hoffman-LaRoche, Nutley, N.J.), ketamine (35 mg/kg, intra-muscularly, Aveco, Fort Dodge, Iowa) and xylazine (5 mg/kg, intramuscularly, Miles Laboratories, Shawnee, Kans.) and a helmet of dental acrylic was affixed to the calvarium. Twenty four hours later, the rabbits were anesthetized with ethyl carbamate (1.75 g/kg; Aldrich Chemical Co., Milwaukee, Wis.) and pentobarbital (15 mg/kg; Abbott Laboratories, Abbott Park, Ill.) and placed in a stereotaxic frame. A spinal needle was introduced into the cisterna magna and 300 μl of CSF was withdrawn. The animals were challenged intracisternally with 10^8 heat killed, unencapsulated pneumococcus strain R6 introduced in 200 μl of saline (time 0). One hour later, animals were treated with peptides dissolved in 1 ml of saline by intravenous injection into the right marginal ear vein. The concentration of FHA was 0.1 μM and that of the FHA Ia, Factor X II, and scrambled FHA II peptides was 10 μM. For the acetyl-FHA II, acetyl/amide-FHA II, dimer of FHA II and trimer of FHA II peptides, the concentration was 10^-3 μM. […]

[2] = test system: transendothelial migration of human neutrophils through HUVEC monolayers; experiment: Transendothelial migration (TEM) of neutrophils; assay type: cell-based; conditions: for % Inhibition of TEM: peptides 0.01 mM, native FHA 1 μM, at least 3 experiments with 6 wells/peptide
Description: FIG. 26 is a graphical representation of the inhibition of transendothelial migration of neutrophils by FHA peptide Ca, native FHA and mAb IB4 in a concentration dependent fashion. FHA peptide Ca (.largecircle.); intact FHA (.quadrature.); and mAb IB4 (.tangle-solidup.). Values represent mean±standard deviation of at least 3 experiments with 6 wells/peptide.
Transendothelial migration of neutrophils was studied based on a method described by Muller et al. (1992), J. Exp. Med. 176: 819-828. Briefly, human neutrophils suspended in ice-cold Hanks balanced salt solution (HBSS) containing Ca^++ and Mg^++ (Sigma) were fluoresceinated by adding 3.3 μl/ml 5-(and 6-)carboxyfluorescein diacetate, succinimidyl ester (CFSE, Molecular Probes Inc., Oreg.). After incubation for 30 mins. on ice, neutrophils were washed twice in cold HBSS with Ca^++ and Mg^++ and resuspended in cold Medium 199 (M199, Sigma) to a final concentration of 10^6 /ml. Human umbilical vein endothelial cells were subcultured at confluence into 96-well tissue culture plates (Becton Dickinson Labware, Lincoln Park, N.J.) that were coated with hydrated collagen gel (Vitrogen; Collagen Corporation, Palo Alto, Calif.) and fibronectin. Endothelial cells were stimulated with 10 ng/ml TNF-alpha for 4 hours and washed three times with warm M199. Neutrophils (10^6 /ml) were preincubated with 0.01 mM of peptides or with 1 μM of native FHA in M199 for 5 mins. on ice before they were added in 100 μl aliquots to the endothelial cells. For positive control, neutrophils were pre-incubated with 25 μg/ml anti-CD18 mAb IB4. For negative control, neutrophils were treated with 25 μg/ml mAb W6/32 against HLA class I antigen (Dako, Carpinteria, Calif.). The cells were incubated for 1 hour at 37° C., 5% CO2. To terminate transmigration, the supernatant fluid was aspirated and the wells were filled with warm 1 mM EGTA (Sigma) in HBSS without Ca and Mg. The plates were covered with plate sealers (Dynatech, Alexandria, Va.) and centrifuged in an inverted position at 250 g for 3 mins. at room temperature. To remove residual non-transmigrated neutrophils from the endothelial cells, monolayers were washed twice with 200 μl of warm Hanks solution without Ca and Mg. Fluorescence was quantitated using a fluorescence counter (Millipore Cytofluorm™ 2300). The percentage of transmigrated neutrophils was determined by comparing the amount of fluorescence of test wells with that measured in collagen- and fibronectin-coated wells without endothelial cells. […] Percent inhibition of transendothelial migration of neutrophils was calculated by comparing the number of transmigrated cells in wells containing neutrophils treated with peptide to neutrophils treated with M199 alone and arbitrarily set at 100% transendothelial migration (TEM).
The procedures for determining the neutrophil adherence to cultured endothelial cells and the transendothelial migration of neutrophils were identical with those of Example 9. Control values were the same as those shown in Example 9.

Row | Substance | % Inhibition of TEM [2] [%] | reduction of CSF leukocytosis [1] [%] | mean leukocyte concentration/μl CSF ([1]; peptides 10 μM i.v.) | also measured
1 | Ac-ETKEVDG-NH2 [Acetyl/Amide-FHA II] |  |  |  | leukocyte migration into the CSF ([1]; 10 nmoles i.v., 6 hours post-pneumococcal challenge, n=10): 3011±684 cells/μl
2 | RGDPHQGVLAQGDIIMDAKG [FHA Ca] | 83 ± 8 |  |  | concentration required for inhibition of TEM similar to native FHA (82±1% at 1 μM) [2]: 10 µM; % Inhibition of TEM ([2]; listed as FHA peptide Ca): 83±8%; leukocyte migration into the CSF (in words) [1]: still significantly reduced leukocyte migration into the CSF; mean leukocyte density, cells/μl CSF [1]: 2137±1498 cells/μl CSF
3 | ETKEVDG [FHA II] | 21 ± 10 | > 60 | 2645 ±1412 /μl CSF | leukocyte migration into the CSF (in words) ([1]; listed as FHA peptide II): statistically significantly different from control at p<0.02; also recorded: more potent anti-inflammatory activity than the corresponding Factor X peptide II; leukocyte migration into CSF (in words) [1]: ineffective
4 | native FHA: Filamentous hemagglutinin, 220kD surface associated protein of Bordetella pertussis (List Biologicals) | 82±1 | > 60 |  | % Inhibition of TEM ([2]; listed as FHA): 82 ± 1%; % Inhibition of TEM ([2]; listed as Intact FHA): 82±1%; leukocyte migration into the CSF (in words) ([1]; listed as FHA): statistically significantly different from control at p<0.05; also recorded: more potent anti-inflammatory activity than the corresponding Factor X peptide II; leukocyte migration into CSF (in words) [1]: ineffective; mean leukocyte concentration/μl CSF ([1]; FHA 25 μg, 0.1 μM i.v.): 2096±450 /μl CSF
5 | RADPHQGVLAQGDIIMDAKG [FHA Cb] | 8 ± 9 |  |  | leukocyte migration into the CSF (in words) [1]: ineffective at this dose; mean leukocyte density, cells/μl CSF [1]: 2788±1022 cells/μl CSF
6 | LGYQAK (UniProt P12255 1979-1984, looked up, fragment) [FHA Ia] | 23 ± 5 | > 60 | 1640±1210 /μl CSF | 
7 | GTLLLRNDALTENGTVTISA [FHA Cd] | 6 ± 6 |  |  | leukocyte recruitment into the CSF (in words) ([1]; 1 μM peptide): no effect on the leukocyte recruitment into the CSF
8 | GYDTKQEDG [Factor X II] | 14 ± 9 | > 60 | 1622±521 /μl CSF | 
9 | DEETVK [scrambled FHA II, reference compound] | 4 ± 5 |  | 6431±1380 /μl CSF | CSF leukocytosis (in words) ([1]; peptides 10 μM): ineffective
10 | AADPHQGVLAQGDIIMDAKG [FHA Cc] | 11 ± 11 |  |  | 
